Assay results from patent US20140309188A1, “USE OF PHARMACEUTICAL COMPOSITION COMPRISING DEOXYNUCLEOSIDE AND NUCLEOSIDE FOR TREATMENT OF TUMOR” (priority 2011, published 2014).
Several values for one entry are separate records, joined by “and”; a condition that tells them apart may be missing. Equal values may be shown once.

Columns and labels:
Format in all cases: cell-based
[1] = test system: Human breast cancer cell lines Bcap-37; test: MTT growth inhibition on human breast cancer cell lines Bcap-37; conditions: concentrations same as Example 1
Protocol: (§1) Human hepatoma cells BEL-7402 and human lung cancer cells PG provided by Institute of Biochemistry and Cell Biology, SIBS, CAS were cultured in the culture medium RPMI 1640 comprising 10% fetal bovine serum. The cells in the exponential growth phase were collected, digested with 0.25% trypsin, inoculated to a 96-well plate with each well having 3×10^3 cells, and then cultured in an incubator having 5% CO2 at 37° C. for 24 hours. Each experimental group was provided with 8 wells. 60 μL of a nucleoside solution having a total concentration of 10.0 mmol/L was added to each well, and the culture medium was replenished to ensure each well to have a volume of 200 μL. The control group was administered with 5-FU having the same concentration as the nucleoside solution. The obtained cells were diluted with serum-free medium and filtered with sterile microporous membrane having an aperture size of 0.22 μm. 48 hours later, cell morphology was observed and photographed by an inverted microscope. Thereafter, 20 μL of MTT solution having a concentration of 5 mg/mL was added to each well of the 96-well plate, which was further cultured in the incubator having 5% CO2 at 37° C. for 4 hours. After the culture, the supernate in the wells was removed. 150 μL of DMSO was added to each well. The 96-well plate was shaken for 10 minutes to facilitate the dissolution of the crystals. An automatic microplate reader (Thermo, Multiskan MK3) was employed to measure the absorbancy at 570 nm. Each experimental group was provided with 8 wells, and each experiment was repeated for three times. Table 1 lists the average value of the three experiments.
(§2) Survival rate of tumor cells (%)=measured OD value of experimental wells/OD value of wells of control group
(§3) Growth inhibition rate of tumor cells=100%−Survival rate of tumor cells (%)
The experimental groups and the control group were administered with different nucleosides or a combination thereof, as listed in Table 5. Human breast cancer cell lines Bcap-37 was provided by the Institute of Basic Medical Sciences (IBMS) of the Chinese Academy of Medical Sciences (CAMS). The experimental method was the same as that in Example 1. The concentrations of the nucleoside combination, the single nucleoside, and 5-FU are all the same as that in Example 1.

[2] = test system: Human colon cancer cell line HT-29; test: MTT growth inhibition on human colon cancer cell line HT-29; conditions: 48 hours; concentrations same as Example 1 (total 10.0 mmol/L solution, 60 μL per 200 μL well)
Protocol: as §1, §2, §3
The experimental groups and the control group were administered with different nucleosides or a combination thereof, as listed in Table 2. Human colon cancer cell line HT-29 was provided by the Institute of Basic Medical Sciences (IBMS) of the Chinese Academy of Medical Sciences (CAMS). The experimental method was the same as that in Example 1. The concentrations of the nucleoside combination, the single deoxynucleoside, and 5-FU are all the same as that in Example 1.

[3] = test system: Human hepatoma cells BEL-7402; test: MTT growth inhibition on human hepatoma cells BEL-7402; conditions: for Growth inhibition rate (%) on Bel-7402: Example 3, concentrations same as Example 1; for inhibition at 10000 µM (stock): Homo sapiens, Bel-7402, read-out: Growth inhibition rate (%) on tumor cells Bel-7402
Protocol: as §1, with “48 hours later, cell morphology was observed and photographed by an inverted microscope.” left out
as §2, §3
1. Experimental method: The experimental groups and the control group were administered with different nucleosides or a combination thereof, as listed in Table 3. Human hepatoma cells Bel-7402 was provided by Institute of Biochemistry and Cell Biology, SIBS, CAS. The experimental method was the same as that in Example 1. The concentrations of the nucleoside combination, the single nucleoside, and 5-FU are all the same as that in Example 1.

[4] = test system: Human glioma cell line SHG-44; test: MTT growth inhibition on human glioma cell line SHG-44; conditions: concentrations same as Example 1
Protocol: as §1, with “After the culture, the supernate in the wells was removed. 150 μL of DMSO was added to each well. The 96-well plate was shaken for 10 minutes to facilitate the dissolution of the crystals.” left out, “Each experimental group was provided with 8 wells, and each experiment was repeated for three times. Table 1 lists the average value of the three experiments.” left out
Survival rate of tumor cells (%)=measured OD value of experimental wells/OD value of wells of control group […]

[5] = test system: human lung cancer cells PG; test: MTT growth inhibition on human lung cancer cells PG; conditions: 48 hours, 60 μL of 10.0 mmol/L solution per 200 μL well, average of three experiments; for inhibition at 10000 µM (stock): Homo sapiens, read-out: Growth inhibition rate (%) on tumor cells PG
Protocol: as §1, §2, §3

[6] = test system: Human gastric cancer cell lines BGC823; test: MTT growth inhibition on human gastric cancer cell lines BGC823; conditions: concentrations same as Example 1
Protocol: as §1, with “48 hours later, cell morphology was observed and photographed by an inverted microscope.” left out
as §2, §3
The experimental groups and the control group were administered with different nucleosides or a combination thereof, as listed in Table 4. Human gastric cancer cell lines BGC823 was provided by the Institute of Basic Medical Sciences (IBMS) of the Chinese Academy of Medical Sciences (CAMS). The experimental method was the same as that in Example 1. The concentrations of the nucleoside combination, the single deoxynucleoside, and 5-FU are all the same as that in Example 1.

[7] = test system: Human cervical carcinoma Hela; test: MTT growth inhibition on human cervical carcinoma Hela; conditions: concentrations same as Example 1
[8] = test system: Human pancreatic cancer cell line PANC-1; test: MTT growth inhibition on human pancreatic cancer cell line PANC-1; conditions: different dosage ratios of dA, dG, C, total concentration same as Example 1
[9] = 48 hours, 60 μL of 10.0 mmol/L solution per 200 μL well, MTT, average of three experiments

| Compound | Growth inhibition rate (%) on Bcap-37 ([1]; 48 hours) | Growth inhibition rate (%) on Bcap-37 ([1]; 72 hours) | Growth inhibition rate (%) on HT-29 [2] | Growth inhibition rate (%) on BGC823 ([6]; 48 hours) | Growth inhibition rate (%) on BGC823 ([6]; 72 hours) | inhibition at 10000 µM (stock) [3, 9] | inhibition at 10000 µM (stock) [5] | further results |
| --- | --- | --- | --- | --- | --- | --- | --- | --- |
| O=c1[nH]cc(F)c(=O)[nH]1 [5-FU, reference compound] | 92% | 95% | 96% and 95% and 91% and 93% | 91% | 95% |  |  | Growth inhibition rate (%) on tumor cells Bel-7402 [3, 9]: 91%; Growth inhibition rate (%) on Bel-7402 ([3]; 48 hours): 91%; Growth inhibition rate (%) on Bel-7402 ([3]; 72 hours): 95%; Growth inhibition rate (%) on SHG-44 ([4]; 48 hours): 91%; Growth inhibition rate (%) on SHG-44 ([4]; 72 hours): 96%; Growth inhibition rate (%) on tumor cells PG [5]: 90%; Growth inhibition rate (%) on Hela ([7]; 48 hours): 92%; Growth inhibition rate (%) on Hela ([7]; 72 hours): 96%; Growth inhibition rate (%) on human pancreatic cancer cell line PANC-1 ([8]; 48 hours): 93%; Growth inhibition rate (%) on human pancreatic cancer cell line PANC-1 ([8]; 72 hours): 95% |
| Nc1ncnc2c1ncn2[C@@H]1O[C@H](CO)[C@@H](O)[C@H]1O [A, adenosine] |  |  |  |  |  | 86% | 84% |  |
| Nc1ccn([C@@H]2O[C@H](CO)[C@@H](O)[C@H]2O)c(=O)n1 [C, cytidine] | 65% | 71% |  |  |  | 65% | 53% |  |
| Nc1nc2c(ncn2[C@@H]2O[C@H](CO)[C@@H](O)[C@H]2O)c(=O)[nH]1 [G, guanosine] |  |  |  |  |  | 83% | 87% |  |
| Cc1cn([C@H]2C[C@H](O)[C@@H](CO)O2)c(=O)[nH]c1=O [T, thymidine] |  |  | 85% |  |  | 87% | 88% |  |
| O=c1ccn([C@@H]2O[C@H](CO)[C@@H](O)[C@H]2O)c(=O)[nH]1 [U, uridine] | 58% | 67% |  |  |  | 49% | 52% |  |
| Nc1ncnc2c1ncn2[C@H]1C[C@H](O)[C@@H](CO)O1 [dA, deoxyadenosine] |  |  | 86% | 89% | 91% | 96% | 94% |  |
| Nc1ccn([C@H]2C[C@H](O)[C@@H](CO)O2)c(=O)n1 [dC, deoxycytidine] |  |  | 89% |  |  | 86% | 84% |  |
| Nc1nc2c(ncn2[C@H]2C[C@H](O)[C@@H](CO)O2)c(=O)[nH]1 [dG, deoxyguanosine] |  |  | 91% | 85% | 90% | 95% | 96% | Growth inhibition rate (%) on Bel-7402 ([3]; 48 hours): 87%; Growth inhibition rate (%) on Bel-7402 ([3]; 72 hours): 93% |
